Results on 34 compounds are retold here after patent US20080221086A1, “Novel Inhibitors of Glutaminyl Cyclase” (PROBIODRUG AG, priority 2006, published 2008).

This assay has as its target hQC (Homo sapiens, UniProt Q16769). Briefly: Fluorometric assay of glutaminyl cyclase (QC) inhibition, H-Gln-βNA or H-Gln-AMC substrate. The class given is biochemical. A digest of the protocol: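 Ki values were obtained by fitting progress curves to a competitive-inhibition equation, and the rapid screen used 4 mM inhibitor with substrate at 1 KM. Both readouts coupled pyroglutamyl aminopeptidase at pH 8.0 and 30° C: H-Gln-βNA at 0.2 mM (ex/em 320/410 nm) or H-Gln-AMC (380/460 nm).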

Where two headings read alike, the source gives them in different places.

Sequence of hQC (Q16769 29-361): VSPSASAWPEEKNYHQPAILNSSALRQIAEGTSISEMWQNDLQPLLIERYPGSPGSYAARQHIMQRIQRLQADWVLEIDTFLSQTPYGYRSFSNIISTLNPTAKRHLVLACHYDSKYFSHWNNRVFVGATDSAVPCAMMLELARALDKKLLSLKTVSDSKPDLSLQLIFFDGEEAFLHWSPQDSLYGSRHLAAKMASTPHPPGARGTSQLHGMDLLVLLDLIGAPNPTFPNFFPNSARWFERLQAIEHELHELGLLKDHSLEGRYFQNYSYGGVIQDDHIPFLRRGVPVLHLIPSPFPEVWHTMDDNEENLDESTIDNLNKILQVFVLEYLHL

Turning to `Cc1ccc2occ(C3/C(=N/CCCc4ccccc4)NC(=O)N3c3ccc4[nH]cnc4c3)c(=O)c2c1` (centres unmarked) [Compound 239, 1-(1H-Benzoimidazol-5-yl)-5-(6-methyl-4-oxo-4H-chromen-3-yl)-4-(3-phenyl-propylimino)-imidazolidin-2-one], the IC50 (read-out: IC50) was 0.4 µM.

On to `CC1/C(=N\CCc2c[nH]c3ccccc23)NC(=O)N1CCCn1ccnc1` (centres unmarked) [Compound 48, 1-(3-Imidazol-1-yl-propyl)-4-2-(1H-indol-3-yl)-ethylimino-5-methyl-imidazolidin-2-one], for which the IC50 (read-out: IC50) came out at 7.6 µM.

For the compound `O=C1N/C(=N\C(Cc2ccccc2)c2ccccc2)C(c2cc3c(cc2Br)OCO3)N1c1ccc2[nH]cnc2c1` (centres unmarked) [Compound 326, 1-(1H-Benzoimidazol-5-yl)-5-(6-bromo-benzo1,3dioxol-5-yl)-4-1,2-diphenyl-ethylimino-imidazolidin-2-one], the concentration for half-maximal inhibition (IC50) (read-out: IC50) came to 0.004 µM.

On to `O=C1N/C(=N/Cc2ccc(Cl)cc2)C(c2ccccc2)N1CCCn1ccnc1` (centres unmarked) [Compound 18, 4-4-Chloro-benzylimino-1-(3-imidazol-1-yl-propyl)-5-phenyl-imidazolidin-2-one], for which the IC50 (read-out: IC50) was determined as 5.8 µM.

For `O=C1N/C(=N/Cc2ccccc2)C(c2ccc(O)cc2)N1CCCn1ccnc1` (centres unmarked) [Compound 99, 4-Benzylimino-5-(4-hydroxy-phenyl)-1-(3-imidazol-1-yl-propyl)-imidazolidin-2-one], the concentration for half-maximal inhibition (IC50) (read-out: IC50) was 6.7 µM.

On to `Fc1ccc(/N=C2\NC(=S)N(c3ccc4[nH]cnc4c3)C2c2ccnc3ccccc23)cc1` (centres unmarked) [Compound 202, 1-(1H-Benzoimidazol-5-yl)-4-4-fluoro-phenylimino-5-quinolin-4-yl-imidazolidine-2-thione], for which the half-maximal inhibitory concentration (IC50) (read-out: IC50) worked out at 7.6 µM.

As to `OC1CCCCC1N=C1NC(=S)N(c2ccc3[nH]cnc3c2)C1c1ccc2nsnc2c1` (centres unmarked) [Compound 312, 1-(1H-Benzoimidazol-5-yl)-5-benzo[c][1,2,5]thiadiazol-5-yl-4-2-hydroxy-cyclohexylimino-imidazolidine-2-thione], the IC50 (read-out: IC50) turned out to be 9.4 µM.

Consider `O=C1N/C(=N/CCc2cccs2)C(c2ccc(Cl)c(F)c2)N1CCCn1ccnc1` (centres unmarked) [Compound 42, 5-(4-Chloro-3-fluoro-phenyl)-1-(3-imidazol-1-yl-propyl)-4-2-thiophen-2-yl-ethylimino-imidazolidin-2-one], for which, under “read-out: IC50”, the IC50 is 5.8 µM.

As to `S=C1N/C(=N\c2ccccc2Br)C(c2ccc3ccccc3c2)N1c1ccc2nc[nH]c2c1` (centres unmarked) [Compound 264, 1-(3H-Benzoimidazol-5-yl)-4-2-bromo-phenylimino-5-naphthalen-2-yl-imidazolidine-2-thione], the concentration for half-maximal inhibition (IC50) (read-out: IC50) came to 8.5 µM.

Consider `O=C1N/C(=N/Cc2ccccc2)C(c2cc(F)cc(F)c2)N1CCCn1ccnc1` (centres unmarked) [Compound 95, 4-Benzylimino-5-(3,5-difluoro-phenyl)-1-(3-imidazol-1-yl-propyl)-imidazolidin-2-one], for which the IC50 (read-out: IC50) came out at 5.8 µM.

Consider `O=C(C/N=C1/NC(=O)N(CCCn2ccnc2)C1c1ccccc1)N1CCc2ccccc2C1` (centres unmarked) [Compound 66, 4-2-(3,4-Dihydro-1H-isoquinolin-2-yl)-2-oxo-ethylimino-1-(3-imidazol-1-yl-propyl)-5-phenyl-imidazolidin-2-one], for which, for the setting “read-out: IC50”, the 50% inhibitory concentration (IC50) turned out to be 4 µM.

For `O=C(C/N=C1/NC(=S)N(c2ccc3[nH]cnc3c2)C1c1ccnc2ccccc12)N1CCC(O)CC1` (centres unmarked) [Compound 270, 2-(1-(1H-benzo[d]imidazol-5-yl)-5-(quinolin-4-yl)-2-thioxoimidazolidin-4-ylideneamino)-1-(4-hydroxypiperidin-1-yl)ethanone], the concentration for half-maximal inhibition (IC50) (read-out: IC50) worked out at 1.3 µM.

As for `O=C(C/N=C1/NC(=O)N(c2ccc3[nH]cnc3c2)C1c1ccc(Cl)c(F)c1)N1CCCCC1` (centres unmarked) [Compound 302, 1-(1H-Benzoimidazol-5-yl)-5-(4-chloro-3-fluoro-phenyl)-4-2-oxo-2-piperidin-1-yl-ethylimino-imidazolidin-2-one], the IC50 (read-out: IC50) was found to be 3.1 µM.

Regarding `O=C(C/N=C1/NC(=O)N(c2ccc3[nH]cnc3c2)C1c1ccc2nsnc2c1)N1CCC(O)C1` (centres unmarked) [Compound 282, 1-(1H-Benzoimidazol-5-yl)-5-benzo[c][1,2,5]thiadiazol-5-yl-4-2-(3-hydroxy-pyrrolidin-1-yl)-2-oxo-ethylimino-imidazolidin-2-one], for the setting “read-out: IC50”, the IC50 came to 4.9 µM.

Consider `S=C1N/C(=N\C2CCCCC2)C(c2cc3c(cc2Br)OCO3)N1c1ccc2nc[nH]c2c1` (centres unmarked) [Compound 266, 1-(3H-Benzoimidazol-5-yl)-5-(6-bromo-benzo1,3dioxol-5-yl)-4-cyclohexylimino-imidazolidine-2-thione], for which the half-inhibitory concentration (IC50) (read-out: IC50) was 8.5 µM.

For `O=C1N/C(=N\C2CCCCC2)C(c2ccccc2Cl)N1CCCn1ccnc1` (centres unmarked) [Compound 6, 5-(2-Chloro-phenyl)-4-cyclohexylimino-1-(3-imidazol-1-yl-propyl)-imidazolidin-2-one], under “read-out: IC50”, the IC50 amounted to 7.2 µM.

For the compound `O=C1N/C(=N/C2CC2)C(C2CCC=CO2)N1CCCn1ccnc1` (centres unmarked) [Compound 1, 4-Cyclopropylimino-5-(3,4-dihydro-2H-pyran-2-yl)-1-(3-imidazol-1-yl-propyl)-imidazolidin-2-one], for the setting “read-out: IC50”, the IC50 stood at 8.6 µM.

For `CCCCC1/C(=N\C2CCCCC2)NC(=O)N1CCCn1ccnc1` (centres unmarked) [Compound 7, 5-Butyl-4-cyclohexylimino-1-(3-imidazol-1-yl-propyl)-imidazolidin-2-one], the 50% inhibitory concentration (IC50) (read-out: IC50) amounted to 9.1 µM.

Take `O=C1N/C(=N/Cc2ccc3[nH]ccc3c2)C(c2cc(Br)cc(Br)c2)N1c1ccc2nc[nH]c2c1` (centres unmarked) [Compound 305, 1-(3H-Benzoimidazol-5-yl)-5-(3,5-dibromo-phenyl)-4-1H-indol-5-ylmethylimino-imidazolidin-2-one]: the IC50 (read-out: IC50) worked out at 0.004 µM.

Turning to `O=C1CCCN1CCC/N=C1\NC(=O)N(c2ccc3[nH]cnc3c2)C1c1ccnc2ccccc12` (centres unmarked) [Compound 247, 1-(1H-Benzoimidazol-5-yl)-4-3-(2-oxo-pyrrolidin-1-yl)-propylimino-5-quinolin-4-yl-imidazolidin-2-one], the half-maximal inhibitory concentration (IC50) (read-out: IC50) was found to be 3.1 µM.

In the case of `O=C1N/C(=N\C2CCCCC2)C(c2cc(F)cc(F)c2)N1CCCn1ccnc1` (centres unmarked) [Compound 4, 4-Cyclohexylimino-5-(3,5-difluoro-phenyl)-1-(3-imidazol-1-yl-propyl)-imidazolidin-2-one], the IC50 (read-out: IC50) was determined as 8.1 µM.

As for `O=C1N/C(=N/CCc2cccs2)C(c2cc(F)cc(F)c2)N1CCCn1ccnc1` (centres unmarked) [Compound 41, 5-(3,5-Difluoro-phenyl)-1-(3-imidazol-1-yl-propyl)-4-2-thiophen-2-yl-ethylimino-imidazolidin-2-one], the IC50 (read-out: IC50) stood at 3.1 µM.

Consider `O=C1N/C(=N/CCN2CCOCC2)C(c2cccc(Br)c2)N1c1ccc2nc[nH]c2c1` (centres unmarked) [Compound 341, 1-(3H-Benzoimidazol-5-yl)-5-(3-bromo-phenyl)-4-2-morpholin-4-yl-ethylimino-imidazolidin-2-one], for which the IC50 (read-out: IC50) was found to be 1.3 µM.

Turning to `O=C1CCCN1CC/N=C1\NC(=S)N(c2ccc3[nH]cnc3c2)C1c1cccc(Br)c1` (centres unmarked) [Compound 175, 1-(2-(1-(1H-benzo[d]imidazol-5-yl)-5-(3-bromophenyl)-2-thioxoimidazolidin-4-ylideneamino)ethyl)pyrrolidin-2-one], under “read-out: IC50”, the 50% inhibitory concentration (IC50) came to 4.9 µM.

For `Cc1cccc(C2/C(=N/CC(=O)N3Cc4ccccc4C3)NC(=O)N2CCCn2ccnc2)c1O` (centres unmarked) [Compound 12, 4-2-(1,3-Dihydro-isoindol-2-yl)-2-oxo-ethylimino-5-(2-hydroxy-3-methyl-phenyl)-1-(3-imidazol-1-yl-propyl)-imidazolidin-2-one], under “read-out: IC50”, the IC50 was 9.6 µM.

For `O=C1N/C(=N\C2CCCCC2O)C(c2ccc3nsnc3c2)N1c1ccc2[nH]cnc2c1` (centres unmarked) [Compound 238], the IC50 (read-out: IC50) stood at 0.004 µM.

On to `O=C1N/C(=N\C2CCCC2)C(c2ccc(Cl)cc2)N1c1ccc2[nH]cnc2c1` (centres unmarked) [Compound 211, 1-(1H-Benzoimidazol-5-yl)-5-(4-chloro-phenyl)-4-cyclopentylimino-imidazolidin-2-one], for which the IC50 stood at 0.0377 µM (compound from preparative synthesis, purified by chromatography, fluorescent assay, read-out: IC50 hQC) and 0.004 µM (read-out: IC50).

Take `O=C1N/C(=N\C2CCc3ccccc32)C(c2ccnc3ccccc23)N1c1ccc2[nH]cnc2c1` (centres unmarked) [Compound 121, 1-(1H-Benzoimidazol-5-yl)-4-indan-1-ylimino-5-quinolin-4-yl-imidazolidin-2-one]: the IC50 (read-out: IC50) is 0.4 µM.

On to `CN1CCCN(C(=O)C/N=C2/NC(=O)N(c3ccc4[nH]cnc4c3)C2c2ccc3c(c2)OCCO3)CC1` (centres unmarked) [Compound 306, 1-(1H-Benzoimidazol-5-yl)-5-(2,3-dihydro-benzo1,4dioxin-6-yl)-4-2-(4-methyl-1,4diazepan-1-yl)-2-oxo-ethylimino-imidazolidin-2-one], for which the IC50 (read-out: IC50) stood at 2.2 µM.

As to `O=C1N/C(=N/CCc2c[nH]c3ccccc23)C(c2ccccc2)N1CCCn1ccnc1` (centres unmarked) [Compound 49, 1-(3-Imidazol-1-yl-propyl)-4-2-(1H-indol-3-yl)-ethylimino-5-phenyl-imidazolidin-2-one], the IC50 (read-out: IC50) was 4.9 µM.

As to `O=C1N/C(=N/CCc2ccccn2)C(c2c[nH]c3cc(F)ccc23)N1c1ccc2[nH]cnc2c1` (centres unmarked) [Compound 345, 1-(1H-Benzoimidazol-5-yl)-5-(6-fluoro-1H-indol-3-yl)-4-2-pyridin-2-yl-ethylimino-imidazolidin-2-one], the 50% inhibitory concentration (IC50) (read-out: IC50) amounted to 4 µM.

For the compound `O=C1N/C(=N/Cc2ccc(Cl)cc2)C(c2ccc(Cl)c(F)c2)N1CCCn1ccnc1` (centres unmarked) [Compound 20, 4-4-Chloro-benzylimino-5-(4-chloro-3-fluoro-phenyl)-1-(3-imidazol-1-yl-propyl)-imidazolidin-2-one], for the setting “read-out: IC50”, the half-maximal inhibitory concentration (IC50) amounted to 7.6 µM.

In the case of `Cc1ccc2occ(C3/C(=N/CCCN4CCOCC4)NC(=O)N3c3ccc4[nH]cnc4c3)c(=O)c2c1` (centres unmarked) [Compound 263, 1-(1H-Benzoimidazol-5-yl)-5-(6-methyl-4-oxo-4H-chromen-3-yl)-4-3-morpholin-4-yl-propylimino-imidazolidin-2-one], for the setting “read-out: IC50”, the half-maximal inhibitory concentration (IC50) worked out at 1.3 µM.

In the case of `CCCC/N=C1\NC(=O)N(CCCn2ccnc2)C1c1cccc(F)c1F` (centres unmarked) [Compound 36, 4-Butylimino-5-(2,3-difluoro-phenyl)-1-(3-imidazol-1-ylpropyl)-imidazolidin-2-one], for the setting “read-out: IC50”, the IC50 is 6.7 µM.
